Source: patent publication US20020132758A1, “Method for identifying compounds to treat medical pathologies associated with molecular crystallization” (priority 2001, published 2002)
In brackets after ≈: the same amount, converted by molar mass.

Test: Water solubility of cholesterol at 37° C. determined by HPLC
Type: physicochemical
Method: Reference is made to two chemical compounds: pure cholesterol (C-pure), and modified cholesterol (C-mod). C-mod is made by partial thermal degradation of C-pure. As a consequence, C-mod is structurally very similar, but not identical, to C-pure. In the first of three steps to this example, a quantity of C-mod is produced by heating 10 grams of dry C-pure in the presence of oxygen for 30 minutes at 134° C., which is a temperature that is 15° below the melting point of the pure substance. In a second step to this example, 10 mg of C-pure is added to one liter of distilled water. The resulting suspension is then stirred at 50° C. for two hours, followed by stirring at 37° C. for 6 hours. The concentration of solute in solution at 37° is then determined by an HPLC analytical method. […] In the third and final step to this example, the process of the second step is repeated with 10 mg of C-pure in one liter of distilled water, and 10 mg of C-mod is also added to the initial suspension. In this case, HPLC determination of the concentration of C-pure in the supernatant solution results in a finding of 1.2 mg/100 mL. […] This increase in apparent solubility of C-pure is considered to be a consequence of the selective inhibition of crystal nucleation and growth, due to the presence of molecules that are similar to but not identical to those of the solute.

Q: With `CC(C)CCC[C@@H](C)[C@H]1CC[C@H]2[C@@H]3CC=C4C[C@@H](O)CC[C@]4(C)[C@H]3CC[C@]12C` [C-pure, cholesterol] as the compound, how does the “concentration of C-pure in the supernatant solution (apparent solubility)” value (10 mg C-pure plus 10 mg C-mod in one liter distilled water, 37° C., HPLC specific to C-pure) read?
A: 1.2 mg/100 mL

Q: And the solubility thermodynamic (thermodynamic from solid, 10 mg C-pure in one liter distilled water, stirred 50° C. 2 h then 37° C. 6 h, HPLC, no C-mod)?
A: 4.5 µg/mL (≈ 11.6 µM)
